From patent US7700610B2, “Use of tyrosine kinase inhibitors for treating allergic diseases” (AB Science, priority 2001, dated 2010)

Assays:
[1] = test system: dog afflicted with severe atopic dermatitis; settings: 3 year old dog with severe atopic dermatitis, 3 mg/kg/d together with cefalexine and ketoconazole
dog cutaneous mast cells = settings: in vitro, Garcia and DeMora, Am J Vet Res 1997; cited from earlier work

| Structure (SMILES) | superficial pyodermatitis and generalized Malassezia dermatitis following treatment (FIG. 3) [1] | inhibition of histamine release (dog cutaneous mast cells) | prodegranulating effect (dog cutaneous mast cells) |
| --- | --- | --- | --- |
| Cc1ccc(NC(=O)c2ccc(CN3CCN(C)CC3)cc2)cc1Nc1nccc(-c2cccnc2)n1 [4-(4-méthylpipérazine-1-ylméthyl)-N-[4-méthyl-3-[(4-pyridine-3-yl-)pyrimidine-2Yl)amino-)]phényl]-benzamide] | resolution of the superficial pyodermatitis and generalized Malassezia dermatitis |  |  |
| CCOC(=O)N1CCC(=C2c3ccc(Cl)cc3CCc3cccnc32)CC1 [loratadine] |  | potent inhibition | without a substantial prodegranulating effect |
